What was measured:
[1] = molecular target: T1, human S1P1 (EDG-1) receptor (Homo sapiens, UniProt P21453); assay: S1P1 (EDG-1) GTP[γ-35S] binding assay, membranes of CHO cells; type: biochemical; conditions: agonistic activity in vitro; read-out: S1P-1 GTPyS/EC50
T1 construct: c-myc (N); expressed in transfected cells
Procedure: (§1) A. In Vitro: GPCR Activation Assay Measuring GTP [γ-^35S] Binding to Membranes Prepared from CHO Cells Expressing Human EDG Receptors
S1P1 (EDG-1) GTP [γ-^35S] assay: Homogenized membranes are prepared from CHO cell clones stably expressing a human EDG-1 N-terminal c-myc tag. Cells are grown in large culture dishes (500 cm^2) to a confluence between 80 and 90%. The culture medium is removed and 20 mL ice-cold buffer A (10 mM HEPES, pH 7.4, 10 mM EDTA, complete protease inhibitor cocktail [1 tablet/50 mL]) added. The cells are harvested by scraping and the cell suspension centrifuged at 750×g for 10 min at 4° C. The pellet is resuspended in 10 mL ice-cold buffer B (20 mM HEPES, pH 7.4, 100 mM NaCl, 10 mM MgCl2, 1 mM EDTA). The cell suspension is homogenized on ice, using a Polytron homogenizer at 25000 rpm at three intervals of 20 seconds each. Then the homogenate is centrifuged at 26900×g for 30 min at 4° C. and the membrane protein pellet resuspended by vortexing in cold buffer B. The protein concentration is determined using the Bio Rad Protein Assay and human IgG as standard. The volume of the membrane protein suspension is adjusted to a final concentration of about 2 mg protein/mL. The solution is then once again homogenized (Polytron) on ice at 25000 rpm for 20 seconds before being aliquoted and stored at −80° C.
(§2) Serial dilutions of compounds (stock in 10 mM DMSO) are prepared by first diluting the compounds in DMSO (1:10) followed by a 1:20 dilution into assay buffer (50 mM HEPES, pH 7.4, 5 mM MgCl2, 1 mM CaCl2, 1% fatty acid-free BSA). S1P (1 mM in DMSO/HCl) is diluted directly into assay buffer. The desired amount of membranes (1-5 μg/well) is diluted with assay buffer containing 10 μM GDP, 25 μg/mL Saponin and 5 mg/mL WGA-SPA beads. 9 μL of pre-diluted compound is placed into the bottom of a 96-well deep-well plate. 440 μL of the membrane-WGA-SPA bead slurry is added and the plate stirred for 15 minutes. Then twice 210 μL are transferred each into a 96-well Optiplate containing 15 μL GTP [γ-^35S] (4 nM in assay buffer). After incubation at room temperature for 120 minutes under constant shaking the plates are centrifuged for 10 minutes at 1000 g to pellet the membrane-SPA beads slurry. Then the plates are measured in a TOPcount NXT. Eight different concentrations of compound are used to generate a concentration response curve (using two data points per concentration) and the corresponding EC50 value using the curve-fitting tool of GraphPad Prism.

S1P5 receptor = S1P5 receptor (Homo sapiens, UniProt Q9H228); assay: S1P5 GTP[γ-35S] binding assay, membranes of CHO cells; type: biochemical; conditions: agonistic activity in vitro; read-out: S1P-5 GTPyS/EC50
Chain of S1P5 receptor (Q9H228 whole entry): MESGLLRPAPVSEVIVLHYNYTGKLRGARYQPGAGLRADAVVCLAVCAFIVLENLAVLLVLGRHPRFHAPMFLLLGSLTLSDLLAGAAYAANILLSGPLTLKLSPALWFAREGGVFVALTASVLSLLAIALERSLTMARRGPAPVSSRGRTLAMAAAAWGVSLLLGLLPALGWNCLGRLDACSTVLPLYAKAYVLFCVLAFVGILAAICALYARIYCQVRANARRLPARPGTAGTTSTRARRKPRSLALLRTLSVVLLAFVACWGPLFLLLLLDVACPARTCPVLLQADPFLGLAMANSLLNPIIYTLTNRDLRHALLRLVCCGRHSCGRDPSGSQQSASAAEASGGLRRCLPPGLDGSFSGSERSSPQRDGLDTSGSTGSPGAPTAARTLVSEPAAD
Procedure: as §1, §2
For each membrane preparation, titration experiments are first run with S1P control to determine the optimal amount of membranes to be added per assay well.

circulating lymphocytes = assay: Blood lymphocyte depletion in rats; type: in vivo, Lewis rats; conditions: for recovery of lymphocyte counts back to baseline: within 48 hours
Procedure: Measurement of circulating lymphocytes: Lewis rats (male, 6-12 weeks old) are orally administered with 0.1 to 5 mg/kg of compound (4 ml/kg vehicle, e.g. in max. 2% DMSO/max. 2% PEG200/water or 0.5% methyl cellulose). A vehicle group is included as negative control.
Blood is collected from the sublingual vein at baseline (0 h) and 2, 6, 24 and 48 hours after administration under short isoflurane anesthesia. Whole blood samples are subjected to hematology analysis. Peripheral lymphocyte counts are determined using an automated analyzer. Two to four rats are used to assess the lymphocyte counts of each dose.

[2] = test system: experimental autoimmune encephalomyelitis (EAE); assay: Acute EAE model; type: in vivo, Lewis rats; conditions: 10 mg/kg b.i.d., oral gavage, days 0-13
[3] = test system: experimental autoimmune encephalomyelitis (EAE); assay: Chronic-progressive EAE model (therapeutic treatment); type: in vivo, DA rat; conditions: therapeutic treatment after peak of disease; from day 15 post-immunization (after 4 days of treatment) until end of experiment; scale 0-5
[4] = test system: experimental autoimmune uveitis (EAU); assay: S-antigen-induced experimental autoimmune uveitis (EAU); type: in vivo, Lewis rats; conditions: 3 and 10 mg/kg bid p.o., day 7 to day 18 post-immunization

T1 sequence (P21453 whole entry): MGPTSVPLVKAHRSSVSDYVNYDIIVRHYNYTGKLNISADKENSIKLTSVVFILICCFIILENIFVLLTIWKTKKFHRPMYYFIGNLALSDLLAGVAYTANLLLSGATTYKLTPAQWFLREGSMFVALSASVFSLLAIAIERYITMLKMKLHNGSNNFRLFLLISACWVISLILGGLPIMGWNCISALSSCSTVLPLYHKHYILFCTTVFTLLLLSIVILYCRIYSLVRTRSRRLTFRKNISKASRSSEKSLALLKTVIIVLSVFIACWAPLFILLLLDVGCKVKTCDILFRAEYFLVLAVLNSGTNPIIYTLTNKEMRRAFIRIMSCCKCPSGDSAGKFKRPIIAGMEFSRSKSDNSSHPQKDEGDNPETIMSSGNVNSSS

| SMILES | EC50 [1] [nM] | EC50 (S1P5 receptor) [nM] | recovery of lymphocyte counts back to baseline (circulating lymphocytes; 1 mg/kg p.o.) | recovery of lymphocyte counts back to baseline (circulating lymphocytes; 5 mg/kg p.o.) | peripheral lymphocyte counts (circulating lymphocytes; 0.1 to 5 mg/kg p.o., Lewis rats) | time of maximal reduction of peripheral lymphocyte counts post-administration (circulating lymphocytes; 1 or 5 mg/kg p.o., Lewis rats) [h] | effect on disease symptoms in acute EAE [2] | clinical scores in chronic-progressive EAE [3] | protection from autoimmune uveitis [4] |
| --- | --- | --- | --- | --- | --- | --- | --- | --- | --- |
| CC(C)Oc1ccc(-c2nc(-c3ccc(C4(N)COC4)cc3)no2)cc1C#N [Example 1, 5-{3-[4-(3-Amino-oxetan-3-yl)-phenyl]-[1,2,4]oxadiazol-5-yl}-2-iso-propoxy-benzonitrile] | 10 | 90 | fully | partially recover back to baseline | dose-dependent reduction | 6 | prevention of disease symptoms | < 0.5 | dose-dependent protection from autoimmune uveitis |
| CC(C)Oc1ccc(-c2nc(-c3ccc(C4(O)COC4)cc3)no2)cc1C#N [Example 2] | 6 | 30 | – | – | – | – | – | – | – |
| CC(=O)c1cc(-c2nc(-c3ccc(C4(N)COC4)cc3)no2)ccc1OC(C)C [Example 3] | 13 | 180 | – | – | – | – | – | – | – |
| CCOc1ccc(-c2nc(-c3ccc(C4(N)COC4)cc3)no2)cc1C#N [Example 4] | 17 | 300 | – | – | – | – | – | – | – |
| CC(=O)c1cc(-c2nc(-c3ccc(C4(O)COC4)cc3)no2)ccc1OC(C)C [Example 5] | 25 | 310 | – | – | – | – | – | – | – |
| CCOc1ccc(-c2nc(-c3ccc(C4(O)COC4)cc3)no2)cc1C#N [Example 6, 5-{3-[4-(3-Hydroxy-oxetan-3-yl)-phenyl]-[1,2,4]oxadiazol-5-yl}-2-ethoxy-benzonitrile] | 29 | 280 | – | – | – | – | – | – | – |

Reference: US20100261766A1, “Phenyl-Oxetanyl-Derivatives” (priority 2007, published 2010)
